Assay: Relaxation dynamics of hyperpolarized [1-13C]pyruvate (build-up time Tb, T1)
Assay type: physicochemical
Text: In addition, the relaxation dynamics of the [1-^13C]pyruvate were also studied.
In addition, relaxation dynamics at earth field and 1.8 T are about the same as a non-fluorinated SABRE catalyst T1=28.9±1.6 s and 66.5±7 s, respectively.
In addition, relaxation dynamics at earth field and 1.8 T are about the same as a non-fluorinated SABRE catalyst T1=9.0±1.9 s and 16.0±1.4 s, respectively.

C[13C](=O)C(=O)O [[1-^13C]pyruvate, Sodium [1-^13C]-pyruvate]
total P13C (bound+free) build-up time Tb (NFBME / deuterated methanol mixture, catalyst of Example 4): 3.0 ± 0.8 s | total P13C (bound+free) build-up time Tb (methanol, catalyst of Example 4, DMSO co-ligand): 6.6 ± 3.0 s

— patent publication US20250244419A1, “INFUSION DEVICE FOR THE PREPARATION AND DELIVERY OF MRI PROBES” (The United States of America, as represented by the …, priority 2022, published 2025)
